# Laboratory results published in patent US20260078122A1, “INDAZOLE COMPOUNDS AS PKMYT1 KINASE INHIBITORS” (Hoffmann-La Roche Inc., priority 2023, published 2026).
# pIC50: −log10 of the molar value. Like-named read-outs stand apart in the source and are kept apart here.
# Assays:
# [1] = target: T1, recombinant human Myt1 (full length PKMYT1) (Homo sapiens, UniProt Q99640); assay: ADP-Glo assay (Myt1 kinase activity)
# T1 sequence (Q99640 1-499): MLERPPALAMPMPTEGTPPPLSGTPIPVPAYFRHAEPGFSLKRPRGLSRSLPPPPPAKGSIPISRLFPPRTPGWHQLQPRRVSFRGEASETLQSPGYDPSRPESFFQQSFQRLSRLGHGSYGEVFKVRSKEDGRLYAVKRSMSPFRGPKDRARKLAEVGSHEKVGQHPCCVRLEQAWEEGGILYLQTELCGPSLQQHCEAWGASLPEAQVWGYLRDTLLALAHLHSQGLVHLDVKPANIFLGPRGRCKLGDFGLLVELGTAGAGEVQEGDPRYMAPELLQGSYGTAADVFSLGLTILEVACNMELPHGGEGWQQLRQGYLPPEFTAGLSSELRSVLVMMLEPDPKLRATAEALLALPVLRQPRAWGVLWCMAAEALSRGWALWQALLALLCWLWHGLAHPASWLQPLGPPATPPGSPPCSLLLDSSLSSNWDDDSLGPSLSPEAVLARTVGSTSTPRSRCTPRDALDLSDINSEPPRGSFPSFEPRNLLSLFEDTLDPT
# [2] = Human hepatocyte stability assay; type: in vitro ADME; settings: 1 μM compound, 1*10^6 cells/mL, 2-120 min
# [3] = Human microsome stability assay; settings: 1 μM compound, 0.5 mg/mL liver microsomal protein, 1 mM NADPH, 37° C., 0-30 minutes
# [4] = GSH adduct screening assay; type: in vitro ADME, human; parameters: key: GSH adducts found (Flag); or not (No Flag); settings: 20 μM compound, HLM 1 mg/ml, 5 mM GSH, 1 mM NADPH, 60 minutes at 37° C.
# [5] = microsomes, pH 7.4
Compound,pIC50 [1],Clearance of Human hepatocyte (μL/min/10^6 cell) [2] [μL/min/10^6 cell],Clearance of Human microsome [3] [mL/min/kg],GSH adduct [4],Clearance of Human microsome [5] [mL/min/kg]
"Nc1c(-c2ccc(F)c3[nH]ncc23)c2ncc(C3CC3)cc2[nH]c1=O [Example 015, 3-Amino-7-cyclopropyl-4-(7-fluoro-1H-indazol-4-yl)-1H-1,5-naphthyridin-2-one]",–,2.6,7.03,No Flag,–
"Cc1cnc2c(-c3ccc(F)c4[nH]ncc34)c(N)c(=O)[nH]c2c1 [Example 002, 3-Amino-4-(7-fluoro-1H-indazol-4-y1)-7-methyl-1H-1,5-naphthyridin-2-one]",–,1.3,–,–,–
"Cc1cc2[nH]c(=O)c(N)c(-c3ccc(F)c4[nH]ncc34)c2nc1C [Example 017, 3-Amino-4-(7-fluoro-1H-indazol-4-yl)-6,7-dimethyl-1H-1,5-naphthyridin-2-one]",–,1.6,–,–,–
"Nc1c(-c2ccc(F)c3[nH]ncc23)c2ncc(Cl)cc2[nH]c1=O [Example 001, 3-Amino-7-chloro-4-(7-fluoro-1H-indazol-4-yl)-1H-1,5-naphthyridin-2-one]",–,2.1,–,–,–
"Cc1nc(Cl)c2c(-c3ccc(F)c4[nH]ncc34)c(N)c(=O)[nH]c2c1C [Example 160, 3-Amino-5-chloro-4-(7-fluoro-1H-indazol-4-yl)-7,8-dimethyl-1H-1,6-naphthyridin-2-one]",7.94,–,–,No Flag,–
"Cc1c(CC(F)(F)F)cnc2c(-c3ccc(F)c4[nH]ncc34)c(N)c(=O)[nH]c12 [Example 133, 3-Amino-4-(7-fluoro-1H-indazol-4-yl)-8-methyl-7-(2,2,2-trifluoroethyl)-1H-1,5-naphthyridin-2-one]",> 8.00,1.7,–,–,–
"CCOc1cnc(C)c2[nH]c(=O)c(N)c(-c3ccc(F)c4[nH]ncc34)c12 [Example 184, 3-Amino-5-ethoxy-4-(7-fluoro-1H-indazol-4-yl)-8-methyl-1H-1,7-naphthyridin-2-one]",> 8.00,1.3,6.20,–,–
"COc1cnc(C)c2[nH]c(=O)c(N)c(-c3ccc(F)c4[nH]ncc34)c12 [Example 173, 3-Amino-4-(7-fluoro-1H-indazol-4-yl)-5-methoxy-8-methyl-1H-1,7-naphthyridin-2-one]",7.82,<1,6.15,–,–
"Cc1cc2[nH]c(=O)c(N)c(-c3ccc(F)c4[nH]ncc34)c2nc1C#CC(C)(C)O [Example 070, 3-Amino-4-(7-fluoro-1H-indazol-4-yl)-6-(3-hydroxy-3-methyl-but-1-ynyl)-7-methyl-1H-1,5-naphthyridin-2-one]",–,1.4,–,–,–
"Cc1cc2[nH]c(=O)c(N)c(-c3ccc(F)c4[nH]ncc34)c2nc1N1CC2(COC2)C1 [Example 026, 3-Amino-4-(7-fluoro-1H-indazol-4-yl)-7-methyl-6-(2-oxa-6-azaspiro[3.3]heptan-6-yl)-1H-1,5-naphthyridin-2-one]",–,–,–,–,8.87
"Cc1cc2[nH]c(=O)c(N)c(-c3ccc(F)c4[nH]ncc34)c2nc1Cl [Example 003, 3-Amino-6-chloro-4-(7-fluoro-1H-indazol-4-yl)-7-methyl-1H-1,5-naphthyridin-2-one]",–,–,8.88,No Flag,–
"Nc1c(-c2ccc(F)c3[nH]ncc23)c2c(Cl)nc(C3CC3)cc2[nH]c1=O [Example 163, 3-Amino-5-chloro-7-cyclopropyl-4-(7-fluoro-1H-indazol-4-yl)-1H-1,6-naphthyridin-2-one]",> 8.00,<1,–,–,–
"Cc1ncc(OCC(F)(F)F)c2c(-c3ccc(F)c4[nH]ncc34)c(N)c(=O)[nH]c12 [Example 183, 3-Amino-4-(7-fluoro-1H-indazol-4-yl)-8-methyl-5-(2,2,2-trifuoroethoxy)-1H-1,7-naphthyridin-2-one]",7.87,<1,6.20,–,–
"N#Cc1nc(C2CC2)cc2[nH]c(=O)c(N)c(-c3ccc(F)c4[nH]ncc34)c12 [Example 167, 3-Amino-7-cyclopropyl-4-(7-fluoro-1H-indazol-4-yl)-2-oxo-1H-1,6-naphthyridine-5-carbonitrile]",7.84,<1,6.80,–,–

# Continued, in another order:
pIC50 [1],Clearance of Human hepatocyte (μL/min/10^6 cell) [2] [μL/min/10^6 cell],Clearance of Human microsome [3] [mL/min/kg],GSH adduct [4],Compound,Clearance of Human microsome [5] [mL/min/kg]
> 8.00,1.2,6.15,–,"Cc1cnc2c(-c3ccc(Cl)c4[nH]ncc34)c(N)c(=O)[nH]c2c1C [Example 146, 3-Amino-4-(7-chloro-1H-indazol-4-yl)-7,8-dimethyl-1H-1,5-naphthyridin-2-one]",–
> 8.00,–,–,No Flag,"C#Cc1cnc2c(-c3ccc(F)c4[nH]ncc34)c(N)c(=O)[nH]c2c1C [Example 124, 3-Amino-7-ethynyl-4-(7-fluoro-1H-indazol-4-yl)-8-methyl-1H-1,5-naphthyridin-2-one]",–
7.76,1.4,6.15,–,"COc1cnc2c(-c3ccc(F)c4[nH]ncc34)c(N)c(=O)[nH]c2c1C [Example 136, 3-Amino-4-(7-fluoro-1H-indazol-4-yl)-7-methoxy-8-methyl-1H-1,5-naphthyridin-2-one]",–
> 8.00,<1,6.15,–,"Cc1c(Cl)cnc2c(-c3ccc(F)c4[nH]ncc34)c(N)c(=O)[nH]c12 [Example 099, 3-Amino-7-chloro-4-(7-fluoro-1H-indazol-4-yl)-8-methyl-1H-1,5-naphthyridin-2-one]",–
–,<1,–,–,"[2H]C([2H])([2H])c1cnc2c(-c3ccc(F)c4[nH]ncc34)c(N)c(=O)[nH]c2c1C [Example 101, 3-Amino-4-(7-fluoro-1H-indazol-4-yl)-8-methyl-7-(trideuteriomethyl)-1H-1,5-naphthyridin-2-one]",–
–,<1,–,–,"Cc1cnc2c(-c3ccc(F)c4[nH]ncc34)c(N)c(=O)[nH]c2c1C [Example 054, 3-Amino-4-(7-fluoro-1H-indazol-4-yl)-7,8-dimethyl-1H-1,5-naphthyridin-2-one]",–
–,<1,–,–,"Cc1c(C2CC2)cnc2c(-c3ccc(F)c4[nH]ncc34)c(N)c(=O)[nH]c12 [Example 100, 3-Amino-7-cyclopropyl-4-(7-fluoro-1H-indazol-4-yl)-8-methyl-1H-1,5-naphthyridin-2-one]",–
